According to BigSolDB 2.1:
“And” between values parts separate entries of the source, which are not always exact repeats. Equal entries are not always repeated.

C[C@@H](O[C@H]1OCCN(Cc2n[nH]c(=O)[nH]2)[C@H]1c1ccc(F)cc1)c1cc(C(F)(F)F)cc(C(F)(F)F)c1
Settings | solubility (mole fraction)
in acetone, 284.75 K | 0.00512
in acetone, 289.85 K | 0.00582
in acetone, 291.45 K | 0.00601
in acetone, 295.95 K | 0.00663
in acetone, 299.85 K | 0.00719
in acetone, 301.45 K | 0.00741
in acetone, 303.75 K | 0.00778
in acetone, 305.65 K | 0.00808
in acetone, 307.55 K | 0.0084
in acetone, 313.85 K | 0.00955
in acetone, 317.75 K | 0.0104
in acetone, 324.65 K | 0.0118
in acetonitrile, 285.55 K | 0.000172
in acetonitrile, 289.55 K | 0.000196
in acetonitrile, 293.45 K | 0.000235
in acetonitrile, 295.95 K | 0.000262
in acetonitrile, 302.85 K | 0.000344
in acetonitrile, 304.35 K | 0.000368
in acetonitrile, 306.55 K | 0.000398
in acetonitrile, 309.55 K | 0.000444
in acetonitrile, 312.35 K | 0.000509
in acetonitrile, 318.85 K | 0.00063
in acetonitrile, 320.85 K | 0.00067
in acetonitrile, 327.95 K | 0.000853
in ethanol, 283.55 K | 0.00166
in ethanol, 290.85 K | 0.00209
in ethanol, 293.55 K | 0.00223
in ethanol, 295.95 K | 0.0024
in ethanol, 298.35 K | 0.00251
in ethanol, 301.55 K | 0.00279
in ethanol, 303.85 K | 0.00294
in ethanol, 306.25 K | 0.00316
in ethanol, 308.25 K | 0.00333
in ethanol, 315.25 K | 0.00396
in ethanol, 318.45 K | 0.00432
in ethanol, 324.85 K | 0.00505
in methanol, 284.45 K | 0.00314
in methanol, 288.75 K | 0.00343
in methanol, 292.15 K | 0.00374
in methanol, 296.35 K | 0.00405
in methanol, 298.45 K | 0.00422
in methanol, 300.75 K | 0.00445 and 0.00463
in methanol, 302.65 K | 0.00495
in methanol, 306.65 K | 0.00513
in methanol, 308.45 K | 0.00568
in methanol, 313.65 K | 0.00619
in methanol, 318.25 K | 0.00676
in n-butanol, 285.45 K | 0.00115
in n-butanol, 288.85 K | 0.00131
in n-butanol, 293.25 K | 0.00154
in n-butanol, 295.45 K | 0.00164
in n-butanol, 298.15 K | 0.00177
in n-butanol, 301.75 K | 0.002
in n-butanol, 303.75 K | 0.00219
in n-butanol, 306.35 K | 0.00235
in n-butanol, 308.85 K | 0.00258
in n-butanol, 313.45 K | 0.00292
in n-butanol, 317.45 K | 0.00335
in n-butanol, 322.25 K | 0.00392
in n-propanol, 283.75 K | 0.00127
in n-propanol, 290.75 K | 0.00162
in n-propanol, 294.75 K | 0.00187
in n-propanol, 296.95 K | 0.00198
in n-propanol, 298.55 K | 0.00207
in n-propanol, 300.15 K | 0.00215
in n-propanol, 303.05 K | 0.00241
in n-propanol, 306.25 K | 0.00262
in n-propanol, 308.75 K | 0.00285
in n-propanol, 314.35 K | 0.00331
in n-propanol, 318.35 K | 0.0037
in n-propanol, 325.35 K | 0.00463
